Values belong to the compound of their own block, whether it stands above or below them.
How the values were obtained:
TERA2.cl.SP12 cells = experiment: Proliferation and cytotoxicity in TERA2.cl.SP12 cultures; format: cell-based, human
[1] = Stability in D6-DMSO, 3 days dark under air versus fluorescent light (1H NMR); format: physicochemical
Excerpt: FIG. 6 ^1H NMR (500 MHz) spectrum (d 5.40-7.80) of ATRA in D6-DMSO in a glass NMR tube after 3 days in the dark under air (top), versus 3 days exposure to fluorescent light (bottom).
FIG. 7 ^1H NMR (500 MHz) spectrum (d 7.20-8.10) of EC23 (10a(i) (R′═H)) in D6-DMSO in a glass NMR tube after 3 days in the dark under air (top), versus 3 days exposure to fluorescent light (bottom).
In order to study the relative stability of certain synthetic retinoids versus the natural systems, solutions of each were exposed to different environmental conditions and then studied by NMR.

[2] = system: human pluripotent TERA2.cl.SP12 embryonal carcinoma stem cells; experiment: Flow cytometry of cell surface antigen expression on human pluripotent stem cells; format: cell-based; details: 14 day test period; comparable to non-isomerised ATRA
Protocol: FIG. 8 Flow cytometric analysis of cell surface antigen expression for markers of stem cells (ssea-3, tra-1-60) and differentiated derivatives (vinis-53, a2b5) when cultures of human pluripotent embryonal carcinoma stem cells (TERA2.SP12) exposed to either 10 μM ATRA or 10 μM EC23 (10a(i) (R′═H)).
FIG. 9 Flow cytometric analysis of cell surface antigen expression on human pluripotent TERA2.cl.SP12 embryonal carcinoma stem cells (undiff) and their differentiated derivatives after 7 days exposure to either ATRA; 3Me-CEBX (12); 3Me-EC19 (10b(ii) R′═H); 3Me-EC23 (10b(i) (R′═H)); 4Me-TTN (6b(i)(R′═H)); all used at 1 μM. DMSO was used as a vehicle control.
(§1) The biological activity of compounds 6, 10, 11, 12 and 13 were determined by exposing these molecules at various concentrations to different mammalian stem cell systems, namely (1) human pluripotent stem cells; and (2) rat adult neuroprogenitor cells.
Tissue development by human pluripotent stem cells closely resembles that which occurs during normal embryogenesis in utero and this cell system is a proven and accepted model of cell differentiation (Przyborski et al, Stem Cells Dev., 2004, 13:400-408).
The expression of cell surface antigens that are known to change as these stem cells commit to differentiate, was assessed by flow cytometry.
Flow cytometry was also used to assay for the effect(s) of compounds 6, 10 and (FIGS. 8 and 9).

[3] = system: human pluripotent stem cells; experiment: Differentiation of human pluripotent stem cells, morphology and immunocytochemistry / immunofluorescent microscopy; format: cell-based; details: for formation of neurons: confirmed by immunocytochemistry
Protocol: as §1
Tissue development by human pluripotent stem cells closely resembles that which occurs during normal embryogenesis in utero and this cell system is a proven and accepted model of cell differentiation (Przyborski et al, Stem Cells Dev., 2004, 13:400-408). […]

[4] = system: neuroprogenitor cells derived from the adult rat hippocampus; experiment: Differentiation of adult neuroprogenitor cells; format: cell-based; details: adult rat hippocampal neuroprogenitor cells; β-tubulin-III staining
Protocol: as §1
The biological activity of the synthetic retinoid EC23 (10a(i)) was also evaluated by exposing it to neuroprogenitor cells derived from the adult rat hippocampus. […] Immunocytochemical staining for the marker β-tubulin-III was used to confirm neuronal identity (data not shown).

[5] = Photoisomerisation under UV light (HNMR); format: physicochemical; details: over 12 hours
Protocol: (§2) In order to test the sensitivity of the natural retinoids, 10 mM samples in either DMSO or deuterochloroform were exposed to either 37° C., laboratory light (approximately 500 lux), white light (approximately 1250 lux) or UV light. Upon isomerisation HNMR spectra of samples were taken and compared to HNMR spectra of pure samples. The % peak intensities from the HNMR spectra were used to quantify levels of the different retinoic acids and any other compounds that may be present.
(§3) The sensitivity of retinoic acids to light was tested by placing samples of ATRA, 9CRA and 13CRA in one of three lighting conditions for varying lengths of time. Samples were exposed to either normal laboratory light conditions, white light or UV light. HNMR spectra were then compared to those of pure samples.
FIGS. 4 and 5 show the relative ratios of the natural retinoic acids found in samples of ATRA and 13CRA isomerised in UV light for 1 hour and 12 hours.
Samples of synthetic retinoids 12(ii), 12(i) and 13 were exposed to 1 hour of laboratory light, 1 hour of white light and 1 hour of UV light. HNMR spectra from samples exposed to lab light and white light were identical to those of pure compounds. […] UV light is emitted at a frequency likely to excite the conjugated double bond region of these synthetic retinoids, resulting in the slight degradation observed. […]

[6] = ATRA in ethanol, white light, 30 minutes; cited from earlier work
[7] = Temperature sensitivity of retinoic acids at 37 °C (HNMR); format: physicochemical; details: 37° C. water bath, HNMR peak intensities
Protocol: as §2
Temperature sensitivity was tested by placing solutions of retinoic acids in a 37° C. water bath for varying time lengths. After 1 hour at 37° C. approximate levels of the initial retinoic acid were 85% for a 13CRA sample and 100% for an ATRA sample. This decreased to 73% for a 13CRA sample and 86% for an ATRA sample after 24 hours.

[8] = Stability at room temperature for 1 week (HNMR); format: physicochemical
Protocol: as §2
Samples of ATRA and 13CRA, were left at room temperature for 1 week. The degraded solution of 13CRA contained around 78% 13CRA. […] All of the above experiments highlight retinoic acids inherent instability, not only in light, but also at 37° C. and even at room temperature.

[9] = Photoisomerisation under laboratory light (HNMR); format: physicochemical; details: laboratory light (approx. 500 lux), 1 hour and 24 hours
Protocol: as §2, §3
The relative ratios of the natural retinoic acid isomers found in samples of ATRA and 13CRA isomerised in lab light for 1 hour and 24 hours can be seen in FIGS. 1 and 2. The new peaks in HNMR spectra increased in size, and so levels of isomerisation products increased over 24 hours but not to any great extent.
Samples of synthetic retinoids 12(ii), 12(i) and 13 were exposed to 1 hour of laboratory light, 1 hour of white light and 1 hour of UV light. HNMR spectra from samples exposed to lab light and white light were identical to those of pure compounds. […]

[10] = Photoisomerisation under white light (HNMR); format: physicochemical
Protocol: as §2, §3
Samples of synthetic retinoids 12(ii), 12(i) and 13 were exposed to 1 hour of laboratory light, 1 hour of white light and 1 hour of UV light. HNMR spectra from samples exposed to lab light and white light were identical to those of pure compounds. […] UV light is emitted at a frequency likely to excite the conjugated double bond region of these synthetic retinoids, resulting in the slight degradation observed. 12(ii) and 12(i) were stable under laboratory light and white light. 13 was stable when exposed to all forms of light.

stem cells = experiment: Modulation of cell differentiation (summary statement); format: cell-based; details: conditions not given
Protocol: (§4) The application of this technology to systems both with and without a methyl group (e.g. in 6a versus 6b), is important because it allows control of relative rotational orientation of the aryl and vinyl groups which has important implications for the control of conformation as a design principle for developing receptor-selective retinoid analogues.
as §1

[11] = Stability (summary statement); format: physicochemical; details: conditions not given
Excerpt: as §4

[12] = 10 μM, 21 days, immunofluorescent microscopy
[13] = 3 days exposure to fluorescent light, DMSO, NMR
[14] = 1 hour, 10 mM in DMSO or deuterochloroform

Compound: CC1(C)CCC(C)(C)c2cc(C#Cc3cccc(C(=O)NO)c3)ccc21 [11a(ii), 3-(5,5,8,8-Tetramethyl-5,6,7,8-tetrahydronaphthalen-2-ylethynyl)benzohydroxamic acid]
cytotoxicity: time to kill the cells (TERA2.cl.SP12 cells; TERA2.cl.SP12 cells, described as potent cytotoxicity): ≤ 4 days | effect on proliferation of the cultures (TERA2.cl.SP12 cells; cultures grown in its presence): halted proliferation almost instantly

Compound: CC1(C)CCC(C)(C)c2cc(C#Cc3ccc(C(=O)O)cc3)ccc21 [10a(i), 4-(5,5,8,8-Tetramethyl-5,6,7,8-tetrahydro-naphthalen-2-ylethynyl)benzoic acid]
stability by NMR ([1]; 3 days, dark under air and fluorescent light, DMSO (same conditions as ATRA)): completely stable | expression of differentiation antigens A2B5 and VINIS-53 [2]: marked increases in expression | expression of stem cell markers TRA-1-60 and SSEA-3 [2]: suppression | epithelial plaques (cytokeratin-8) [3, 12]: very few, if any, epithelial plaques | formation of neurons / neuronal differentiation [3, 12]: consisting primarily of cells undergoing neuronal differentiation | nestin expression [3, 12]: strong expression for nestin | behaviour compared with natural ATRA ([3]; human pluripotent stem cells): essentially identical behaviour to natural ATRA | formation of neurons ([3]; morphology): induced the formation of morphologically identifiable neurons | differentiation into neurons [4]: differentiate into well-defined neurons

amount remaining [1, 13]: 37% | isomerisation and degradation [1, 13]: 63% | stability by NMR ([1]; 3 days in the dark in air in DMSO): reasonably stable | degradation in UV light [5]: rapidly degraded | approximate level of the initial retinoic acid [7, 14]: ~100% | approximate level of the initial retinoic acid ([7]; 24 hours): ~86% | content of the initial retinoic acid in the solution [8]: 94% | relative stability in laboratory light [9]: marginally more stable than 13CRA | level of ATRA ([10]; white light (approx. 1250 lux), 1 hour): 76% | level of ATRA ([10]; white light, 6 hours): 43% | level of ATRA ([10]; white light, 24 hours): 21%
Compound: CC1=C(/C=C/C(C)=C/C=C/C(C)=C/C(=O)O)C(C)(C)CCC1 [ATRA, All-trans-retinoic acid]
epithelial plaques (cytokeratin-8) [3, 12]: numerous epithelial plaques | formation of neurons / neuronal differentiation [3, 12]: induced the formation of neurons | relative concentration of 9, 13-dicis RA in the isomerised ATRA sample [6]: 5% | relative concentration of 9CRA in the isomerised ATRA sample [6]: 10% | relative concentration of 11CRA in the isomerised ATRA sample [6]: 10% | relative concentration of 13CRA in the isomerised ATRA sample [6]: 30% | relative concentration of ATRA in the isomerised ATRA sample [6]: 25% | relative concentration of an unidentified compound in the isomerised ATRA sample [6]: 20% | differentiation into neurons [4]: primarily form neurons

Compound: CC1=C(/C=C/C(C)=C/C=C/C(C)=C\C(=O)O)C(C)(C)CCC1 [Compound 13CRA, 13-cis-retinoic acid]
degradation in UV light [5]: rapidly degraded | approximate level of the initial retinoic acid [7, 14]: ~85% | approximate level of the initial retinoic acid ([7]; 24 hours): ~73% | content of the initial retinoic acid in the solution [8]: around 78%

Compound: CC(=Cc1ccc(C(=O)O)cc1)c1cc2c(cc1C)C(C)(C)CCC2(C)C [Compound 6bi, 4-[2-(3,5,5,8,8-Pentamethyl-5,6,7,8-tetrahydro-naphthalen-2-yl)propenyl]benzoic acid]
efficacy in modulating cell differentiation (stem cells): efficacious in modulating cell differentiation | stability [11]: particularly stable

Compound: CC1(C)CCC(C)(C)c2cc(C#Cc3cccc(C(=O)O)c3)ccc21 [10a(ii)]
cells immuno-positive for Tuj-1 and NF200 [3, 12]: only a few cells immuno-positive | epithelial plaques (cytokeratin-8) [3, 12]: large numbers of cytokertin-8 positive epithelial plaques | formation of neurons / neuronal differentiation [3, 12]: formation of very few neurons | nestin expression [3, 12]: nestin staining reduced | formation of epithelial cells ([3]; morphology): formation of epithelial cells | formation of neurons ([3]; morphology): Neurons were not identified

Compound: COC(=O)c1cccc(C=C(C)c2ccc3c(c2)C(C)(C)CCC3(C)C)c1 [Compound 6aii, 3-[2-(5,5,8,8-Tetramethyl-5,6,7,8-tetrahydronaphthalen-2-yl)-propenyl]-benzoic acid methyl ester]
efficacy in modulating cell differentiation (stem cells): efficacious in modulating cell differentiation | stability [11]: particularly stable

— patent US8293803B2, “Retinoid compounds and their use” (Reinnervate Limited, priority 2006, dated 2012)
